Source: patent publication US12708676B2, “Phosphate compounds for detecting neurological disorders” (Amydis, Inc., priority 2018, dated 2026)
Values after ≈ are worked out from the molar mass of the structure shown. Read-outs that look alike come from different tables or passages of the source.

Tests used:
[1] = Solubility of Compound 9 / phosphate prodrugs; assay type: physicochemical; conditions: aqueous buffer; phosphate buffer at pH 7.4
Text: Due to the poor water solubility and the large particle size of compounds such as Compound 7, prodrug derivatives of these compounds were investigated.

[2] = Rabbit pharmacokinetics of Compound 9, Study 1 (retina, brain, blood); assay type: in vivo; conditions: other: injection (site not specified), Study 1, 30 mg Compound 9 injected
Experimental: (§1) Compound 9 was injected into rabbits as a solution in 0.1 M phosphate buffer, pH 7.4 such that rabbits received either 30 mg of Compound 9 (Study 1) or 28 mg of Compound 9 (Study 2). The purpose of these studies was to confirm that Compound 9 could easily be converted into Compound 7 in vivo.
Study 1: Rabbits received a 1.5 mL injection of a 20 mg/mL solution of Compound 9 in 0.1 M phosphate buffer, pH 7.4. Rabbits were sacrificed at the specified time points (N=3 per time point) in the tables below and the average concentration of Compound 9 and Compound 7 was determined in the retina (Table 3), brain (Table 4) and blood (Table 5).

[3] = Rabbit pharmacokinetics of Compound 9, Study 2 (retina, brain, blood/plasma); assay type: in vivo
Experimental: as §1
Study 2: The purpose of this study was to determine if higher concentrations of Compound 9 and/or Compound 7 was present at earlier time points in the tissues specified. Rabbits received a 1.4 mL injection of a 20 mg/mL solution of Compound 9 in 0.1 M phosphate buffer, pH 7.4. Blood was collected from rabbits (N=6) two minutes after receiving Compound 9 to determine the blood concentration at this time point (Table 8). Rabbits were then sacrificed at the specified time points (N=3 per time point) in the tables below and the average concentrations of Compound 9 and Compound 7 were determined in the retina (Table 6), brain (Table 7) and blood (Table 8).

[4] = system: hyperphosphorylated three repeat tau protein; experiment: Example 3: retinal fluorescent imaging of model mice after intravenous Compound 9; parameters: species or system mouse; conditions: Compound 9 intravenously, retinas imaged ex vivo, example in present tense
Experimental: Model mice having a detectable target protein, for example, an amyloid beta protein, or a phosphorylated tau protein, or an accumulated mass thereof, are administered Compound 9 intravenously. Retinas of the mice are removed and are mounted on slides. The retinas are washed with PBS 2 times for 5 minutes. A solution of 98% formic acid is added—5 minutes for antigen retrieval. The sampled are washed with distilled water—2 times for 5 minutes. The samples are equilibrated in 1×PBS for 15 minutes, then blocked with 10% goat/donkey serum in 1× PB ST (depending on antibodies) for 1 hour. Samples are covered in foil, and washed with 1× PBS 3 times for 5 minutes each. Samples are stained with DAPI (300 nM or 100 ng/mL) in dark for 10 minutes, then tissues are washed 3×10 minutes with PBS. Antifade DAKO mounting medium is added, and coverslip and kept under foil until imaging.
Fluorescent imaging study of the samples is conducted on a Leica DMI 4000B microscope (Leica, Germany) equipped with a TCS SPE camera and Leica 10, 20 and 40× objectives. The following lasers are used to visualize fluorescent probes pertaining to DAPI (blue, nuclear stain), Compound 7 (green) and hyperphosphorylated tau (red): 408, 488 and 568 nm. Z-stacked images are taken at 40× at 0.5 μm increments to visualize the entire thickness of the tissue.

Aβ = experiment: Example 4: detection of Aβ in the retina of a TBI (blast) mouse model; assay type: in vivo; conditions: blast model mice 24 hours after injury, Compound 9 intravenously; example in present tense
Experimental: This example is conducted to determine whether Compound 9 detects Aβ in the retina of a TBI mouse model.
Blast model mice 24 hours after injury and a non-injured mouse are administered Compound 9 intravenously. Mice retinas are scanned by scanning laser ophthalmoscopy (SLO).
Alternatively, or in addition to retinal scanning, retinal tissues are removed and stained with an anti-Aβ antibody (6E10).

solubility [1]: 20 to 30 mg/mL (≈ 38.6 to 58 mM)
concentration at 15 min ([2]; blood, read-out: Avg Conc., blood): 5440 ± 767 ng/mL
concentration at 30 min ([2]; blood, 30 min, read-out: Avg Conc., blood): 374 ± 301 ng/mL
concentration at 60 min ([2]; blood, 60 min, read-out: Avg Conc., blood): 24.9 ± 31.8 ng/mL
concentration at 15 min ([2]; brain, read-out: Avg Conc., brain): 0.439 ng/g
concentration at 5 min ([3]; brain, other: injection (site or type of injection not stated), rabbit, Study 2, 28 mg Compound 9 injected, 5 min, read-out: Avg Conc., brain): 7.2 ± 2.62 ng/g
concentration at 10 min ([3]; brain, other: injection (site or type of injection not stated), rabbit, Study 2, 28 mg Compound 9 injected, read-out: Avg Conc., brain): 2.23 ± 0.426 ng/g
Kp ([3]; brain, rabbit, after injection of Compound 9): < 0.001
Conversion of Compound 9 to Compound 7 in vivo ([3]; healthy rabbit model): rapidly converted to Compound 7
concentration at 2 min ([3]; plasma, other: injection (site not specified), rabbit, Study 2, 28 mg Compound 9 injected, 2 min, read-out: Avg Conc., plasma): 67600 ± 18800 ng/mL
concentration at 5 min ([3]; plasma, other: injection (site not specified), rabbit, Study 2, 28 mg Compound 9 injected, 5 min, read-out: Avg Conc., plasma): 40000 ± 11800 ng/mL
concentration at 10 min ([3]; plasma, other: injection (site not specified), rabbit, Study 2, 28 mg Compound 9 injected, read-out: Avg Conc., plasma): 8860 ± 1310 ng/mL
Avg Conc., retina ([3]; rabbit, Study 2, 28 mg Compound 9 injected, 5 min): remained undetectable
SMILES: N#C/C(=C\c1ccc2cc(N3CCCCC3)ccc2c1)C(=O)NCCOCCOCCOP(=O)(O)O [Compound 9]
Adverse reactions ([3]; rabbits, during the time course of the study): no adverse reactions were noted
Detection of hyperphosphorylated three repeat tau protein in the retina [4]: detected in the retina, producing a detectable fluorescent signal
Scanning laser ophthalmoscopy image of retina (Aβ): showing the presence of Aβ plaques
